Results from the supplement of paper PMC13207355.

Experiments:
Conditions in all cases: exposure time: 72 h
E21 [1] = patient-derived glioblastoma stem cells of mesenchymal subtype; test: surviving fraction (nuclei count normalised to DMSO); higher = more cells surviving (less toxic)
FT3469 [2] = normal neural stem cell line; test: as above
E57 [3] = patient-derived glioblastoma stem cells of mesenchymal subtype; test: as above
E34 [4] = patient-derived glioblastoma stem cells of proneural subtype; test: as above
E28 [5] = patient-derived glioblastoma stem cells of classical subtype; test: as above
E13 [6] = patient-derived glioblastoma stem cells of classical subtype; test: as above
E31 [7] = patient-derived glioblastoma stem cells of proneural subtype; test: as above
E21 [8] = test: phenotypic distance (Euclidean, principal components) from DMSO controls (arbitrary units); higher = stronger morphological change
FT3469 [9] = test: as above
E57 [10] = test: as above
E34 [11] = test: as above
E28 [12] = test: as above
E13 [13] = test: as above
E31 [14] = test: as above
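Wherever phenotypic distance (Euclidean, principal components) from DMSO controls is given: cell Painting imaging in 384-well plates, CellProfiler features reduced to at least 20 principal components, Euclidean distance versus same-plate DMSO vehicle wells (0.1% v/v), median over six images per well.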
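Wherever surviving fraction (nuclei count normalised to DMSO) is given: nuclei counted by high-content imaging of Hoechst-stained cells in laminin-coated 384-well plates, relative to 0.1% DMSO vehicle wells, with staurosporine as cell-death control.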

COC(=O)Nc1nc2cc(C(=O)c3ccc(F)cc3)ccc2[nH]1 [Flubendazol]
Conditions | phenotypic distance | surviving fraction
E13 [6], 4.1 nM | – | 0.992
E13 [6], 12.3 nM | – | 1.12
E13 [6], 37 nM | – | 1.11
E13 [6], 111.1 nM | – | 0.943
E13 [6], 333.3 nM | – | 0.471
E13 [6], 1000 nM | – | 0.261
E13 [6], 3000 nM | – | 0.234
E13 [13], 4.1 nM | 0.372 | –
E13 [13], 12.3 nM | 0.737 | –
E13 [13], 37 nM | 0.86 | –
E13 [13], 111.1 nM | 1.59 | –
E13 [13], 333.3 nM | 3.72 | –
E13 [13], 1000 nM | 6.11 | –
E13 [13], 3000 nM | 6.68 | –
E21 [1], 4.1 nM | – | 1.09
E21 [1], 12.3 nM | – | 0.929
E21 [1], 37 nM | – | 0.954
E21 [1], 111.1 nM | – | 0.885
E21 [1], 333.3 nM | – | 0.777
E21 [1], 1000 nM | – | 0.161
E21 [1], 3000 nM | – | 0.137
E21 [8], 4.1 nM | 0.658 | –
E21 [8], 12.3 nM | 1.03 | –
E21 [8], 37 nM | 0.833 | –
E21 [8], 111.1 nM | 1.63 | –
E21 [8], 333.3 nM | 2.94 | –
E21 [8], 1000 nM | 7.4 | –
E21 [8], 3000 nM | 7.27 | –
E28 [5], 4.1 nM | – | 1.07
E28 [5], 12.3 nM | – | 1.09
E28 [5], 37 nM | – | 1.02
E28 [5], 111.1 nM | – | 1.02
E28 [5], 333.3 nM | – | 0.67
E28 [5], 1000 nM | – | 0.361
E28 [5], 3000 nM | – | 0.234
E28 [12], 4.1 nM | 0.523 | –
E28 [12], 12.3 nM | 0.55 | –
E28 [12], 37 nM | 0.574 | –
E28 [12], 111.1 nM | 1.08 | –
E28 [12], 333.3 nM | 1.98 | –
E28 [12], 1000 nM | 3.45 | –
E28 [12], 3000 nM | 3.81 | –
E31 [7], 4.1 nM | – | 0.887
E31 [7], 12.3 nM | – | 0.95
E31 [7], 37 nM | – | 0.807
E31 [7], 111.1 nM | – | 0.615
E31 [7], 333.3 nM | – | 0.329
E31 [7], 1000 nM | – | 0.118
E31 [7], 3000 nM | – | 0.0708
E31 [14], 4.1 nM | 0.507 | –
E31 [14], 12.3 nM | 0.548 | –
E31 [14], 37 nM | 0.79 | –
E31 [14], 111.1 nM | 1.36 | –
E31 [14], 333.3 nM | 3.16 | –
E31 [14], 1000 nM | 5.22 | –
E31 [14], 3000 nM | 7.77 | –
E34 [4], 4.1 nM | – | 1.14
E34 [4], 12.3 nM | – | 0.942
E34 [4], 37 nM | – | 0.985
E34 [4], 111.1 nM | – | 0.904
E34 [4], 333.3 nM | – | 0.661
E34 [4], 1000 nM | – | 0.473
E34 [4], 3000 nM | – | 0.324
E34 [11], 4.1 nM | 0.541 | –
E34 [11], 12.3 nM | 0.863 | –
E34 [11], 37 nM | 0.46 | –
E34 [11], 111.1 nM | 1.21 | –
E34 [11], 333.3 nM | 1.98 | –
E34 [11], 1000 nM | 3.35 | –
E34 [11], 3000 nM | 4.79 | –
E57 [3], 4.1 nM | – | 0.998
E57 [3], 12.3 nM | – | 0.941
E57 [3], 37 nM | – | 1.06
E57 [3], 111.1 nM | – | 0.996
E57 [3], 333.3 nM | – | 0.739
E57 [3], 1000 nM | – | 0.134
E57 [3], 3000 nM | – | 0.0682
E57 [10], 4.1 nM | 0.67 | –
E57 [10], 12.3 nM | 0.423 | –
E57 [10], 37 nM | 0.428 | –
E57 [10], 111.1 nM | 1.31 | –
E57 [10], 333.3 nM | 2.68 | –
E57 [10], 1000 nM | 5.07 | –
E57 [10], 3000 nM | 4.95 | –
FT3469 [2], 4.1 nM | – | 1.16
FT3469 [2], 12.3 nM | – | 0.827
FT3469 [2], 37 nM | – | 0.997
FT3469 [2], 111.1 nM | – | 0.747
FT3469 [2], 333.3 nM | – | 0.644
FT3469 [2], 1000 nM | – | 0.524
FT3469 [2], 3000 nM | – | 0.564
FT3469 [9], 4.1 nM | 0.499 | –
FT3469 [9], 12.3 nM | 0.843 | –
FT3469 [9], 37 nM | 0.655 | –
FT3469 [9], 111.1 nM | 0.943 | –
FT3469 [9], 333.3 nM | 2.08 | –
FT3469 [9], 1000 nM | 3.42 | –
FT3469 [9], 3000 nM | 3.26 | –

CCCCCCNC(=O)n1cc(F)c(=O)[nH]c1=O [Carmofur]
Conditions | phenotypic distance | surviving fraction
E13 [6], 4.1 nM | – | 0.99
E13 [6], 12.3 nM | – | 1.04
E13 [6], 37 nM | – | 0.909
E13 [6], 111.1 nM | – | 0.986
E13 [6], 333.3 nM | – | 0.963
E13 [6], 1000 nM | – | 1.05
E13 [6], 3000 nM | – | 0.877
E13 [13], 4.1 nM | 0.618 | –
E13 [13], 12.3 nM | 0.582 | –
E13 [13], 37 nM | 0.585 | –
E13 [13], 111.1 nM | 0.446 | –
E13 [13], 333.3 nM | 0.744 | –
E13 [13], 1000 nM | 0.529 | –
E13 [13], 3000 nM | 0.786 | –
E21 [1], 4.1 nM | – | 0.952
E21 [1], 12.3 nM | – | 0.91
E21 [1], 37 nM | – | 0.9
E21 [1], 111.1 nM | – | 0.957
E21 [1], 333.3 nM | – | 0.927
E21 [1], 1000 nM | – | 0.955
E21 [1], 3000 nM | – | 0.877
E21 [8], 4.1 nM | 0.484 | –
E21 [8], 12.3 nM | 0.616 | –
E21 [8], 37 nM | 0.756 | –
E21 [8], 111.1 nM | 0.906 | –
E21 [8], 333.3 nM | 0.649 | –
E21 [8], 1000 nM | 0.744 | –
E21 [8], 3000 nM | 1.09 | –
E28 [5], 4.1 nM | – | 1.02
E28 [5], 12.3 nM | – | 1.19
E28 [5], 37 nM | – | 0.916
E28 [5], 111.1 nM | – | 0.949
E28 [5], 333.3 nM | – | 1.1
E28 [5], 1000 nM | – | 1.26
E28 [5], 3000 nM | – | 0.731
E28 [12], 4.1 nM | 0.928 | –
E28 [12], 12.3 nM | 1.13 | –
E28 [12], 37 nM | 1.26 | –
E28 [12], 111.1 nM | 0.901 | –
E28 [12], 333.3 nM | 0.775 | –
E28 [12], 1000 nM | 1.21 | –
E28 [12], 3000 nM | 1.55 | –
E31 [7], 4.1 nM | – | 0.889
E31 [7], 12.3 nM | – | 0.903
E31 [7], 37 nM | – | 0.826
E31 [7], 111.1 nM | – | 0.961
E31 [7], 333.3 nM | – | 0.894
E31 [7], 1000 nM | – | 1.07
E31 [7], 3000 nM | – | 0.875
E31 [14], 4.1 nM | 0.818 | –
E31 [14], 12.3 nM | 0.955 | –
E31 [14], 37 nM | 1.02 | –
E31 [14], 111.1 nM | 0.782 | –
E31 [14], 333.3 nM | 0.838 | –
E31 [14], 1000 nM | 0.811 | –
E31 [14], 3000 nM | 0.874 | –
E34 [4], 4.1 nM | – | 0.974
E34 [4], 12.3 nM | – | 0.829
E34 [4], 37 nM | – | 0.841
E34 [4], 111.1 nM | – | 0.884
E34 [4], 333.3 nM | – | 0.928
E34 [4], 1000 nM | – | 1
E34 [4], 3000 nM | – | 0.889
E34 [11], 4.1 nM | 3.48 | –
E34 [11], 12.3 nM | 1.19 | –
E34 [11], 37 nM | 0.943 | –
E34 [11], 111.1 nM | 1.13 | –
E34 [11], 333.3 nM | 0.621 | –
E34 [11], 1000 nM | 0.627 | –
E34 [11], 3000 nM | 0.693 | –
E57 [3], 4.1 nM | – | 0.882
E57 [3], 12.3 nM | – | 0.903
E57 [3], 37 nM | – | 0.919
E57 [3], 111.1 nM | – | 0.922
E57 [3], 333.3 nM | – | 1.02
E57 [3], 1000 nM | – | 0.954
E57 [3], 3000 nM | – | 0.85
E57 [10], 4.1 nM | 0.989 | –
E57 [10], 12.3 nM | 0.918 | –
E57 [10], 37 nM | 0.681 | –
E57 [10], 111.1 nM | 0.66 | –
E57 [10], 333.3 nM | 0.538 | –
E57 [10], 1000 nM | 0.74 | –
E57 [10], 3000 nM | 1.04 | –
FT3469 [2], 4.1 nM | – | 0.763
FT3469 [2], 12.3 nM | – | 0.995
FT3469 [2], 37 nM | – | 0.811
FT3469 [2], 111.1 nM | – | 0.832
FT3469 [2], 333.3 nM | – | 0.955
FT3469 [2], 1000 nM | – | 0.915
FT3469 [2], 3000 nM | – | 0.649
FT3469 [9], 4.1 nM | 0.889 | –
FT3469 [9], 12.3 nM | 2.05 | –
FT3469 [9], 37 nM | 1.22 | –
FT3469 [9], 111.1 nM | 3.24 | –
FT3469 [9], 333.3 nM | 0.832 | –
FT3469 [9], 1000 nM | 0.844 | –
FT3469 [9], 3000 nM | 1.47 | –

CCC(C)(C)C(=O)O[C@H]1C[C@@H](C)C=C2C=C[C@H](C)[C@H](CC[C@@H]3C[C@@H](O)CC(=O)O3)[C@H]21 [Simvastatin]
phenotypic distance
Conditions | E13 [13] | E21 [8] | E28 [12] | E31 [14] | E34 [11] | E57 [10] | FT3469 [9]
4.1 nM | 0.99 | 1.6 | 1.08 | 0.808 | 1.5 | 1.7 | 1.31
12.3 nM | 0.654 | 1.96 | 1.13 | 0.911 | 1.01 | 0.806 | 1.32
37 nM | 1.13 | 2.52 | 1.19 | 0.566 | 0.739 | 1.4 | 2.33
111.1 nM | 1.23 | 2.77 | 1.42 | 1.39 | 0.945 | 0.799 | 1.86
333.3 nM | 2.27 | 4.05 | 1.61 | 1 | 1.16 | 1.19 | 2.21
1000 nM | 2.58 | 4.54 | 1.56 | 0.996 | 0.529 | 1.46 | 2.66
3000 nM | 4.02 | 5.96 | 3.67 | 3.45 | 1.72 | 3.54 | 3.39
